Where two headings read alike, the source gives them in different places.
How the values were obtained:
[1] = system: E. multilocularis; test: Compound efficacy in E. multilocularis-infected mice; conditions: for deaths of mice during the 28-days treatment: n = 10; for treatment efficacy versus control group, in words: 25 and 50 mg/kg/day oral; for treatment efficacy versus control group, in words / Mean cyst weight reduction (inhibition rate): 28 days; for Mean cyst weight reduction (inhibition rate): infected BALB/c mice
Description: E. multilocularis-infected animals [BALB/c mice (SLAC Laboratory Animal Center)] were maintained by serial i.p. transplantation passages through for 6 months, the details can be found in our published paper (Liu et al., [2019]). Eighty infected BALB/c mice were prepared for in vivo treatment experiments. Parasite materials were isolated from the peritoneal cavity of the infected animals and homogenized with Hanks' balanced salt solution (HBSS). Then, after passing the parasite homogenate through a 60-mesh sieve, the E. multilocularis PSCs were collected and rinsed 5~8 times. The viability of the PSCs was determined by the methylene blue exclusion method (Liu et al., [2018]), and PSCs with > 95% viability were used in the following experiments. The PSCs were cultured in RPMI 1,640 medium supplemented with 10% CS and antibiotics (100 U/ml penicillin G and 100 μg/ml streptomycin) at 37°C in 5% CO2.
The remaining mice were orally administered 1% tragacanth solution (1% TRA) as a control. All of the mice were euthanized 2 weeks after finishing the treatment, and all of the cysts were isolated and weighed. The efficacy of the treatments was assessed based on the mean cyst weight as previously described (Liu et al., [2015]).
The LC50 and Tox50 values were calculated by the probability unit method with SPSS version 17.0. The differences in mean cyst weight were analyzed by ANOVA in SPSS 17.0, and P < 0.05 was considered statistically significant.

[2] = Pharmacokinetics analysis in plasma of mice; format: in vivo, BALB/c mice; conditions: for MRT last: read-out: MRT(0–t)
Description: To study the relationship between pharmacokinetic characteristics and treatment efficacy in vivo, compounds were administered by oral (50 mg/kg) and intramuscular (12.5 mg/kg) methods to healthy BALB/c mice ([…]). Subgroups of 3 mice each were bled at 0.25, 0.5, 1, 2, 4, 8, 16, 24, 32, and 48 h post-administration. Then, 300 μl samples of plasma were collected and centrifuged at 2,500 g for 15 min. The compounds in the plasma were extracted on Oasis HLB cartridges (Waters, Massachusetts, USA) with praziquantel as the internal standard. The HPLC-HRMS system used for separation and analysis consisted of an Accela 1250 pump, a PAL HTC autosampler, an Accela PDA detector and an Xcalibur data system (Thermo Fisher Scientific, Waltham, MA, USA). Compounds were separated on a 3-μm Waters Atlantis 2.1 mm × 100 mm column (Massachusetts, USA) with a mobile phase containing methanol and formic acid at a flow rate of 0.35 ml/min. The data were analyzed by the non-compartmental model present in DAS 2.0 (Drug Analysis System, Shanghai University of T.C.M, China). Detailed pharmacokinetic experimental methods, including a representative HPLC-MS chromatogram, a standard curve, and a plot used to confirm precision, are shown in the Supplementary Data.

[3] = system: Chang liver cells; test: Cytotoxicity test, Chang liver cells (CCK-8); format: cell-based; conditions: for Tox50 Changliver cell: 72 h, CCK-8, 6.25~100 μM; for inhibition at 100 µM: Chang liver, read-out: inhibition rate, Chang liver cell
Description: (§1) Cytotoxicity was determined using Chang liver cells and A172 cells in DMEM with 10% FBS as previously described (Liu et al., [2018]). The final concentrations of the test compounds were 3.125~50 μM for A172 cells and 6.25~100 μM for Chang liver cells. After 72 h, the cell viabilities were determined using a CCK-8 kit. The concentration that induced 50% cell toxicity (Tox50) was then calculated.

[4] = system: E. multilocularis protoscoleces; test: In vitro drug screen with E. multilocularis protoscoleces (methylene blue exclusion); format: cell-based; conditions: Echinococcus multilocularis, read-out: LC50 E. multilocularis PSC
Description: In vitro treatment of PSCs was performed in 96-well microtiter plates (Costar, USA) containing 100 PSCs per 200 μl. A solution of the test compound (6.25~100 μM) was added to each well. Nitazoxanide and mebendazole (25 μM) were used as positive controls, while RPMI 1640 medium and RPMI 1640 with 0.25% DMSO were used as negative controls. […] All experiments were carried out in triplicate and repeated at least twice.

[5] = system: A172 cells; test: Cytotoxicity test, A172 cells (CCK-8); format: cell-based; conditions: for Tox50 A172 cell: 72 h, CCK-8, 3.125~50 μM; for effect on proliferation of cancer cells (A172 cells), in words: CCK-8
Description: as §1

[6] = Pharmacokinetics analysis in plasma of mice; format: in vivo, BALB/c mice; conditions: drug and plasma samples left overnight
[7] = BALB/c, im, mouse plasma, intramuscular 12.5 mg/kg
[8] = BALB/c, mouse, plasma, im, 12.5 mg/kg, intramuscular 12.5 mg/kg, read-out: Cmax
[9] = BALB/c, mouse, plasma, po, 50 mg/kg, oral 50 mg/kg, read-out: Cmax
[10] = BALB/c, mouse plasma, oral 50 mg/kg
[11] = mouse plasma, intramuscular 12.5 mg/kg
[12] = 72 h incubation, 6.25~100 μM, methylene blue exclusion

OC(COc1ccc(F)cc1)CN1CCN(C(c2ccccc2)c2ccccc2)CC1 (stereo not drawn) [BTB4]
deaths of mice during the 28-days treatment ([1]; 25 mg/kg/day oral): 2 mice | deaths of mice during the 28-days treatment ([1]; 50 mg/kg/day oral): 4 mice | treatment efficacy versus control group, in words [1]: ineffective | Tmax [2, 7]: 4.67 ± 3.06 h | MRT last [2, 7]: 16 ± 1.13 h | Cmax [2, 8]: 86.4 ± 4.02 ng/mL | Cmax [2, 9]: 225 ± 55.4 ng/mL | Tmax [2, 10]: 2 h | MRT last [2, 10]: 8.08 ± 1.55 h | AUC(0–t) [2, 11]: 1589.90 ± 165.13 ng·h/mL | AUC(0–t) ([2]; mouse plasma, oral 50 mg/kg): 1692.29 ± 341.00 ng·h/mL

COc1cccc(NC(=O)CN(C)CC(=O)Nc2ccc(F)c(Cl)c2)c1 [Compound S1]
Tox50 Changliver cell [3]: 43.98 ± 1.38 µM | LC50 [4, 12]: 20.4 ± 0.51 µM

O=C(CC1CCC(c2c[nH]c3ccccc23)CC1)Nc1cccc(Cl)c1 (stereo not drawn) [Compound S5]
Tox50 A172 cell [5]: 11.98 ± 0.91 µM | effect on proliferation of cancer cells (A172 cells), in words [5]: inhibited the proliferation | Tox50 Changliver cell [3]: 42.44 ± 0.34 µM | LC50 [4, 12]: 18.6 ± 1 µM

O=C(CC1CCC(c2c[nH]c3ccccc23)CC1)Nc1cc(Cl)ccc1Cl (stereo not drawn) [Compound S6]
Tox50 A172 cell [5]: 11.00 ± 5.00 µM | effect on proliferation of cancer cells (A172 cells), in words [5]: inhibited the proliferation | Mean cyst weight reduction (inhibition rate) ([1]; 25 mg/kg/day oral gavage): 9.53% | Mean cyst weight reduction (inhibition rate) ([1]; 50 mg/kg/day oral gavage): 14.43% | treatment efficacy versus control group, in words [1]: no significant difference | inhibition at 100 µM [3]: 24.6% | Cmax [2, 9]: 1 ng/mL | Tmax [2, 10]: 4.33 ± 3.51 h | MRT last [2, 10]: 4.34 ± 2.59 h | plasma concentration, in words [2, 11]: below the detection limit | AUC(0–t) ([2]; mouse plasma, oral 50 mg/kg): 5.10 ± 4.64 ng·h/mL | Cmax ([2]; mouse plasma, oral 50 mg/kg, 50 mg/kg): 1.55 ± 1.01 ng/mL | stability in plasma samples: detectable concentration [6]: greatly reduced | LC50 ([4]; 72 h): 17 ± 0.93 µM

Cc1ccc(C)c(NC(=O)CC2CCC(c3c[nH]c4ccccc34)CC2)c1 (stereo not drawn) [Compound S11]
Tox50 A172 cell [5]: 22.72 ± 1.37 µM | effect on proliferation of cancer cells (A172 cells), in words [5]: inhibited the proliferation | inhibition at 100 µM [3]: 42.1% | LC50 [4, 12]: 18.7 ± 0.87 µM

CN(CC(=O)Nc1cccc(F)c1)CC(=O)Nc1cccc2ccccc12 [Compound S16]
Tox50 A172 cell [5]: 21.00 ± 6.24 µM | effect on proliferation of cancer cells (A172 cells), in words [5]: inhibited the proliferation | inhibition at 100 µM [3]: 34.6% | LC50 [4, 12]: 17.4 ± 0.2 µM

C[C@H](C(=O)N(C)Cc1ccccc1)N(C)CC(=O)Nc1cccc2ccccc12 [Compound S19]
Tox50 A172 cell [5]: 22.54 ± 1.79 µM | effect on proliferation of cancer cells (A172 cells), in words [5]: inhibited the proliferation | inhibition at 100 µM [3]: 36.5% | LC50 [4, 12]: 18.8 ± 1.7 µM

CCN(CC(=O)Nc1cc(Cl)cc(Cl)c1)Cc1nc(=O)c2ccc(Cl)cc2[nH]1 [Compound S28]
Tox50 A172 cell [5]: 20.99 ± 4.12 µM | effect on proliferation of cancer cells (A172 cells), in words [5]: inhibited the proliferation | Tox50 Changliver cell [3]: 35.41 ± 0.62 µM | LC50 [4, 12]: 19.9 ± 0.31 µM

Cc1ccnc(NC(=O)C2CCN(CCC(=O)Nc3ccc4c(c3)CCC4)CC2)c1 [Compound S31]
LC50 ([4]; 72 h): 19.2 ± 0.8 µM

CN(C)[C@@H](CNC(=O)C[C@H]1Sc2ccc(Cl)cc2NC1=O)Cc1ccccc1 [Compound S39]
Tox50 Changliver cell [3]: 51.46 ± 3.34 µM | LC50 [4, 12]: 17.7 ± 0.74 µM

COc1ccc([C@H]2CCCN2CC(=O)NCc2cccc(Cl)c2)c(OC)c1 [Compound S59]
Tox50 Changliver cell [3]: 66.53 ± 2.99 µM | LC50 [4, 12]: 19.6 ± 0.56 µM

OC(CN1CCCCC1)Cn1c2ccc(Cl)cc2c2cc(Cl)ccc21 (stereo not drawn) [HT3]
deaths of mice during the 28-days treatment ([1]; 25 mg/kg/day oral): 2 mice | deaths of mice during the 28-days treatment ([1]; 50 mg/kg/day oral): 3 mice | treatment efficacy versus control group, in words [1]: ineffective | Tmax [2, 7]: 1 h | MRT last [2, 7]: 18.1 ± 2.38 h | Cmax [2, 8]: 39.6 ± 11.2 ng/mL | Cmax [2, 9]: 122 ± 42.6 ng/mL | Tmax [2, 10]: 0.33 ± 0.14 h | MRT last [2, 10]: 4.16 ± 0.85 h

COC(=O)Nc1nc2ccc(C(=O)c3ccccc3)cc2[nH]1 [MBZ, mebendazole, reference compound]
Mean cyst weight reduction (inhibition rate) ([1]; 25 mg/kg/day oral gavage): 39.66% | deaths of mice during the 28-days treatment ([1]; 25 mg/kg/day oral): 1 mice
